Drawing on paper PMC11173721, “Discovery of a New Class of Lipophilic Pyrimidine-Biphenyl Herbicides Using an Integrated Experimental-Computational Approach” (Molecules, 2024), this text covers IC50 for four compounds.

What is called IC50 is the concentration that inhibits the measured activity by half. The low end stands for greater potency, the high end for weaker potency.

For the experiment, the target named is T1, acetohydroxyacid synthase (AHAS) (Arabidopsis thaliana, UniProt P17597).
T1 construct: gene ALS; wild-type
T1 sequence (P17597 56-670): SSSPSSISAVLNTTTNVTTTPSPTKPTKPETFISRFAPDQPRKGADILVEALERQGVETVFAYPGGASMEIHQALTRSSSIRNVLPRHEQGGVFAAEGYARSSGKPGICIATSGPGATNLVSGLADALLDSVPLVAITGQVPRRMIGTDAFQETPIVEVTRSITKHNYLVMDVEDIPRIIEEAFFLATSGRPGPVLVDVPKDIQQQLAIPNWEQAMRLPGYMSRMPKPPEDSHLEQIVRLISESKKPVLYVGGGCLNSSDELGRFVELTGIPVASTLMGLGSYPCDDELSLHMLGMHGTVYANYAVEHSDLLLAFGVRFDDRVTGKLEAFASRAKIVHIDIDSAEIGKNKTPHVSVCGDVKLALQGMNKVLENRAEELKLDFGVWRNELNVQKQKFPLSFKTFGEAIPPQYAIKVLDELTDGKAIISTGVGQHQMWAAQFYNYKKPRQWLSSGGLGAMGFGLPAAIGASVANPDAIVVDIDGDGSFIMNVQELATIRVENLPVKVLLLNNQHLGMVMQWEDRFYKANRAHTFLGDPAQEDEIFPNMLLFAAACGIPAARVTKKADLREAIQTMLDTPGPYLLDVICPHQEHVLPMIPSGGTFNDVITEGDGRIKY
Nature of the experiment: purified AtAHAS colorimetric activity assay ([…] nm). It counts as biochemical.
As for `COc1cc(OC)nc(Oc2ccccc2CNc2ccc(-c3ccccc3)cc2)n1` [IIIa], half-maximal inhibition (IC50) required 343 µM.

As for `COc1cc(OC)nc(Oc2ccccc2CNc2cccc(-c3ccccc3)c2)n1` [IIa], half-maximal inhibition (IC50) was put at 189 µM.

Regarding `COc1cc(OC)nc(Oc2ccccc2CNc2ccccc2-c2ccccc2)n1` [Ia], the IC50 was found to be 157 µM.

In the case of `COc1cc(OC)nc(Oc2ccccc2CNc2ccccc2)n1` [PBA], the midpoint of inhibition, the IC50, lay at 593 µM.
